In article PMC12040169 (PLOS Biology, 2025):

Assay: in vitro
Settings: human, hela cells, % viability

| SMILES | viability at 28.5 h, 10 µM [%] |
| --- | --- |
| COc1cc(C(=O)Nc2cc(-c3nc4ncccc4o3)ccc2C)ccc1OCc1ccc(Cl)cc1 [CBK264704] | 112 |
| O=C(Cn1c(-c2cncs2)nc2ccccc21)NCc1ccccc1 [CBK264705] | 103 |
| O=S(=O)(NC1c2cccc3cccc(c23)C1Sc1ncccn1)c1ccccc1 (centres unmarked) [CBK264706] | 103 |
| Cn1cnnc1SC1c2cccc3cccc(c23)C1NS(=O)(=O)c1ccc(Cl)cc1 (centres unmarked) [CBK264707] | 98.2 |
| Cc1ccc(OC(=O)CCC(=O)Nc2ccc(S(N)(=O)=O)cc2)cc1 [CBK264708] | 95.1 |
| CN(C)S(=O)(=O)c1ccc(C(=O)C2=C(O)C(=O)N(Cc3cccnc3)C2c2ccncc2)cc1 (centres unmarked) [CBK264714] | 95.4 |
| O=C(CC1Sc2ccccc2NC1=O)Nc1ccc([N+](=O)[O-])c(F)c1 (centres unmarked) [CBK264717] | 85.5 |
| Cc1cc(C(=O)Nc2nnc[nH]2)ccc1[N+](=O)[O-] [CBK264719] | 99.7 |
| COc1ccc(CN2CCC(N3CCN(c4ccccc4F)CC3)CC2)cc1OCc1ccccc1 [CBK264720G] | 105 |
| COc1ccc(CN2CCC(N3CCCCCC3)CC2)cc1OC [CBK264721G] | 90.8 |
| CC(NC(=O)c1c(Cl)c(Cl)c(Cl)c(Cl)c1C(=O)O)c1cccs1 (centres unmarked) [CBK264722] | 107 |
| COc1ccc(C(=O)C2=C(O)C(=O)N(CCCN(C)C)C2c2ccc(Cl)c(Cl)c2)cc1 (centres unmarked) [CBK264723] | 94.4 |
| COc1ccc(Cl)cc1NC(=O)CN(c1cc(C(F)(F)F)ccc1Cl)S(C)(=O)=O [CBK264724] | 82.5 |
| Cc1ccc(NC(=O)CN2C(=O)S/C(=C\c3cc(C)n(-c4cccc(C(=O)O)c4)c3C)C2=O)cc1 [CBK264725] | 89.9 |
| Cc1ccc(S(=O)(=O)N(CC(=O)Nc2ccccc2C)Cc2ccc(Cl)c(Cl)c2)cc1 [CBK264735] | 93.3 |
| Cc1ccc2nc(-c3ccccc3)c(CN3CCCC3)c(O)c2c1 [CBK264736] | 106 |

| SMILES | viability at 28.5 h, 10 µM [%] |
| --- | --- |
| COc1ccccc1N(CC(=O)Nc1ccc2c(c1)oc1ccccc12)S(=O)(=O)c1ccccc1 [CBK264737] | 87.8 |
| Cc1ccc(N(CC(O)CN2CCCC2)S(=O)(=O)c2ccccc2)cc1 (centres unmarked) [CBK264739] | 101 |
| CCNC(=S)N1CCN(CCNC=C2C(=O)CC(c3ccco3)CC2=O)CC1 (centres unmarked) [CBK264742] | 91.7 |
| O=C(/C=C/C=C/c1ccccc1)CC1(O)C(=O)N(Cc2cccc3ccccc23)c2ccccc21 (centres unmarked) [CBK264744] | 93.6 |
| CC(=O)Nc1ccc(S(=O)(=O)Nc2ccc(S(=O)(=O)Nc3cc(C)ccc3C)cc2)cc1 [CBK264745] | 98.4 |
| CCCn1c(=N)n(CCOc2cccc(C)c2)c2ccccc21 [CBK264746B] | 89.2 |
| COc1ccc(OC)c(C2C(C(=O)c3ccccc3)=C(O)C(=O)N2CCN2CCOCC2)c1 (centres unmarked) [CBK264748] | 114 |
| Cc1ncc([N+](=O)[O-])n1CCSc1nnc(SCc2ccccc2)s1 [CBK264751] | 86.4 |
| Cc1n[nH]c(O)c1C(c1cccc([N+](=O)[O-])c1)c1c(C)n[nH]c1O [CBK264753] | 97.8 |
| O=C(O)CCc1ccc(-c2ccc(F)cc2)n1-c1cc(Cl)ccc1Cl [CBK264754] | 111 |
| CCOC(=O)c1cnc2c(C)cc(C)cc2c1NCCN1CCOCC1 [CBK264757] | 109 |
| CC(=O)Nc1cccc(NC(=O)CSc2ccc(C(F)(F)F)cc2[N+](=O)[O-])c1 [CBK264758] | 103 |
| CC(C)(C)c1ccc(S(=O)(=O)N/N=C\c2ccc(Cl)cc2Cl)cc1 [CBK264759] | 84.6 |
| COc1ccc(C2CC(=O)C(=CNCCN3CCN(C(=O)c4ccccc4)CC3)C(=O)C2)cc1 (centres unmarked) [CBK264762] | 104 |
| CC(=O)Nc1ccc(S(=O)(=O)N2CCN(c3ccc([N+](=O)[O-])c(N4CCOCC4)c3)CC2)cc1 [CBK264764] | 109 |
| CC(Nc1nc(-c2ccc([N+](=O)[O-])cc2)nc2ccccc12)c1ccccc1 (centres unmarked) [CBK264767] | 88.3 |
